The values that follow come from patent publication US20110236506A1, “PHARMACEUTICAL ASSOCIATION CONTAINING LIPOIC ACID AND HYDROXYCITRIC ACID AS ACTIVE INGREDIENTS” (priority 2008, published 2011).

Data set [1] relates to MBT-2 murine bladder tumors. Nature of the data set: Antitumor activity tests on C3H mice with implanted MBT-2 tumors. It counts as in vivo. Here is the method:
The compositions described hereinafter were tested against MBT-2 murine bladder tumors implanted in syngeneic C3H mice. These mice develop a tumor of 7 to 10 mm in diameter in approximately 20 days. The pharmaceutical combinations according to the invention and also the control compositions were administered intraperitoneally, for 21 days, starting from the 19th day after tumor inoculation. The change in tumor development was monitored by measuring the size of the tumors and monitoring the survival of the animals during the experiment.
The mice were randomized in groups of 18 individuals, the tumor of which is palpable (size of approximately 10 mm, after approximately 19 days of tumor development), according to the size of the tumor and the weight of the animals. For each animal, the maximum diameter of each tumor was measured with a Vernier caliper in order to determine the tumor volume. […]
The treatment with 5-FU (positive control) was administered intraperitoneally with a dose of 10 mg/kg once a day for 4 days. The mice treated with 5-FU were monitored in the same way as the other mice.
Every five days, the evolution of the tumor was monitored by various measurements: weight of the animals, tumor size (caliper rule), mortality. […]

Data set [2] relates to HT-29 tumor cell line. Nature of the data set: Cell proliferation and viability test (MTT / number of cells), HT-29 cell line. It counts as cell-based, human. As to conditions: molecule tested alone, relative to control culture. The procedure:
The HT-29 tumor cell line was isolated in 1964 from a primary colonic adenocarcinoma in a person (Fogh J. et al. 1977 J. Nat. Cancer. Inst. 59: 221-6).
(§1) The tumor cell lines were cultured in monolayer at 37° C. in a humidified atmosphere (5% CO2, 95% air). The culture medium which was used is DMEM Glutamax I (Invitrogen) for the two lines, supplemented with 10% of fetal calf serum (Eurobio) and 1/10 000 IU of penicillin and streptomycin. For carrying out the experiments, the human tumor cell lines were detached from the culture flask by treatment for 10 minutes with a solution of trypsin in Hanks medium without calcium or magnesium. The cells were counted in a hemocytometer and their viability was determined using the trypan blue exclusion test.
(§2) The tumor cell lines were amplified and then seeded into 96-well microplates (MTT) or 6-well plates (cell counts) at a concentration which allowed the cells to be in the proliferation phase for the 5 days of the culture. They were incubated for 48 hours before the beginning of the treatments in the microplates containing culture medium without the test substances or the reference substances.
During phase I (test with a single active ingredient), the tumor cell lines were incubated for 5 days at 37° C. under 5% CO2 with culture medium containing one of the test substances. Each experimental condition was reproduced six times. Generally, the flasks of culture medium supplemented with serum were first of all prepared with the highest concentration of each test molecule. Each other concentration to be tested was obtained by successive dilutions in the serum-supplemented culture medium. This step was adjusted according to the particular instability or sensitivity of each drug. […]
(§3) The tumor cell lines were incubated with 100 μl (96-well plates) or 2 ml (6-well plates) of serum-supplemented culture medium containing the test substances or the reference substance. The culture medium of each culture well (supplemented with the test molecule(s)) was renewed every two days during the treatment.
(§4) Starting from the first day of contact, and every two days after the beginning of the contacting of the culture media containing the test substances and the reference substances at the various concentrations tested, the proliferation and the cell viability of the cells were evaluated. The cell viability was evaluated in two different ways: • directly, under an optical microscope by statistical counting (number of cells), and • indirectly, by colorimetric assay based on the degradation of tetrazolium salts by mitochondrial dehydrogenases (MIT test). The optical densities (OD) of each well were then read with a microplate reader set at the appropriate wavelength.
(§5) For each active ingredient, each concentration tested and each combination, three cell viability values were measured and corrected, in particular by means of the calibration ranges for the optical reading instrument.
(§6) The mean of the three cell viability measurement values was then divided by the mean of the measurements of viability carried out in parallel in a control culture free of active ingredients.

Data set [3] concerns T-24 tumor cell line. Nature of the data set: Cell proliferation and viability test (MTT / number of cells), T-24 cell line. The class given is cell-based, human. The settings on record: molecule tested alone, relative to control culture. Here is the method:
The T-24 tumor cell line is a transitional bladder carcinoma isolated from a person (O'Toole C M. et al. 1983 Nature 301: 429-30).
as §1, §2
During phase I (test with a single active ingredient), the tumor cell lines were incubated for 5 days at 37° C. under 5% CO2 with culture medium containing one of the test substances. Each experimental condition was reproduced six times. Generally, the flasks of culture medium supplemented with serum were first of all prepared with the highest concentration of each test molecule. Each other concentration to be tested was obtained by successive dilutions in the serum-supplemented culture medium. This step was adjusted according to the particular instability or sensitivity of each drug.
In phase II of the study (test with the combination of the two active ingredients), the same conditions for preparing the media and for culturing the cells were adhered to, and the active ingredients were combined and added simultaneously to the culture medium.
as §3, §4, §5, §6

For data set [4], the system named is HT-29 and T-24 cell lines. Nature of the data set: Cell viability tests, observations stated jointly for the two cell lines. The class given is cell-based. As to conditions: human, 5 days, 4 μmol.l−1. Here is the method: as §1, with “test. […]” for “test.”
as §4

As to `O=c1[nH]cc(F)c(=O)[nH]1` [5-FU, 5-fluorouracil], the “days of implantation after which 50% of the mice are still alive” value in data set [1] (FIG. 4B, groups of 18 mice) came to 39 days. Besides, in data set [1] (controls: 50% alive after 27 days), the “increase in survival compared with the control mice” value is 12 days.

In the case of `O=C(O)CCCCC1CCSS1` (stereo not drawn) [Lipoic acid, alpha-lipoic acid], the “Ratio of live HT-29 cells after 72 hours, MTT” value worked out at 0.807 in data set [2] (0.1 μmol·l−1), 0.55 in data set [2] (1 μmol·l−1) and 0.452 in data set [2] (10 μmol·l−1). Besides, the “Ratio of live HT-29 cells after 72 hours, Number of cells” value in data set [2] (0.1 μmol·l−1) is 0.853; in data set [2] (1 μmol·l−1), 0.583; in data set [2] (10 μmol·l−1) it was 0.441. The entries for the “Ratio of live T-24 cells after 72 hours, MTT” value in data set [3] (0.1 μmol·l−1), in data set [3] (1 μmol·l−1) and in data set [3] (10 μmol·l−1) were 0.898, 0.690 and 0.534, respectively. Moreover, the entries for the “Ratio of live T-24 cells after 72 hours, Number of cells” value in data set [3] (0.1 μmol·l−1), in data set [3] (1 μmol·l−1) and in data set [3] (10 μmol·l−1) were 0.940, 0.772 and 0.601, respectively. The cell mortality in data set [4] is recorded as no more than 50%.

Consider calcium hydroxycitrate, for which the “Ratio of live HT-29 cells after 72 hours, MTT” value is given as 0.743 in data set [2] (10 μmol·l−1), 0.519 in data set [2] (100 μmol·l−1) and 0.376 in data set [2] (500 μmol·l−1). The “Ratio of live HT-29 cells after 72 hours, Number of cells” value in data set [2] (10 μmol·l−1) is given as 0.777; in data set [2] (100 μmol·l−1) it was 0.557; in data set [2] (500 μmol·l−1), 0.374. The entries for the “Ratio of live T-24 cells after 72 hours, MTT” value in data set [3] (0.2 μmol·l−1), in data set [3] (3 μmol·l−1) and in data set [3] (45 μmol·l−1) were 0.725, 0.488 and 0.359, respectively. Besides, the “Ratio of live T-24 cells after 72 hours, Number of cells” value in data set [3] (0.2 μmol·l−1) is given as 0.845; in data set [3] (3 μmol·l−1), 0.643; in data set [3] (45 μmol·l−1), 0.450.
